Test results as given in paper PMC12250754, “Phytochemical Screening and Biological Activities of Lippia multiflora Moldenke” (Molecules, 2025).
In brackets after ≈: the same amount, converted by molar mass. Read-outs that look alike come from different tables or passages of the source. Marks after values point to notes of the source that are not given here.

Assays:
[1] = Reducing power assay; conditions: mean ± SD, n = 3
Experimental: The reducing capacity of the crude extracts was estimated as described by Pereira et al. (2013). Fifty microliters of the crude extracts were mixed with fifty microliters of sodium phosphate buffer (0.2 M, pH 6.6). After serial dilution, a potassium hexacyanoferrate (1% aqueous, 50 μL) solution was added. A trichloroacetic acid (10%, 50 μL) solution was added after 20 min of incubation at 50 °C. Eighty microliters of each mixture was moved to another 96-well plate containing eighty microliters of distilled water. […] All the crude extracts were tested in triplicate.

[2] = DPPH free radical scavenging assay; conditions: mean ± SD, n = 3
Experimental: The DPPH free radical scavenging ability was evaluated for the crude extracts using the DPPH (2,2-diphenyl-1-picrylhydrazyl) assay using a modified spectrophotometric method of Motamed and Naghibi (2010) [81]. The crude extracts (100 µL) were added to a 96-well plate containing distilled water (100 µL). After serial dilution, a 0.3 M DPPH/methanol (200 µL) solution was added to the mixture. The mixture was left at room temperature for 30 min, and the absorbance was measured using a SoftMax^R Pro 6 (version 6.3) microplate reader at 517 nm. All the crude extracts were tested in triplicate.
The percentage of radical scavenging was calculated by the following formula:% Free RSA = [(ADPPH − Asample)/(ADPPH)] × 100(2) where ADPPH is the absorbance of the DPPH solution and Asample is the absorbance of the samples and DPPH. The ability of the crude extracts to inhibit 50% of the free radical (IC50) was extrapolated from a graph of % RSA against concentration.

[3] = cited from earlier work
[4] = cited from earlier work; remark: listed apart in the source
[5] = design: method as in earlier work; conditions: ref 65 (Gülçin et al. 2012); cited from earlier work
[6] = design: method as in earlier work; conditions: ref 65 (Gülçin et al. 2012); cited from earlier work; remark: listed apart in the source
[7] = tested on: Vero cells; test: MTT cytotoxicity assay; format: cell-based, African green monkey; conditions: Chlorocebus sabaeus, 48 h, Vero monkey kidney cells, two days incubation, mean ± SD, n = 3
Experimental: African green monkey (Vero) kidney cells (ATCC CCL-81, Cellonex, Johannesburg, South Africa) were cultured in Minimal Essential Medium (MEM), which consisted of Earle’s Balanced Salt Solution (EBSS) and L-Glutamine (2.0 mM) (Cytiva Hyclone, Marlborough, MA, USA) and was supplemented with 10% fetal bovine serum (FBS) and 1% penicillin/streptomycin (P/S, Biowest, Nuaille, France). These cells were incubated for 48 h at 37 °C in a 95% air and 5% CO2 humidified incubator (Nϋve, Ankara, Turkey). The cells were trypsinized with 0.25% trypsin/EDTA (Cytiva Hyclone, Marlborough, MA, USA) and split at a ratio of 1:5 for further passaging at 70 to 80% confluency. […]
The 3-(4,5-dimethylthiazol-2-yl)-2,5-diphenyltetrazolium bromide (MTT) cytotoxicity assay was determined as described by Mariri et al. (2024). The cytotoxic effects of the crude extracts of Lippia multiflora were evaluated against Vero cells. […] The mixture was kept in the dark for 15 min, and the absorbance was measured spectrophotometrically at 570 nm on a SpectraMax iD3 multi-mode microplate reader (Winooski, VT, USA). The cell viability was calculated as the percentage (%) of negative control (0.5% dimethyl sulfoxide; see Equation (3)).
The extracts were calculated using the following equation:(3) Cell viability%=Abssample−AbsBlank/Absnegative control−AbsBlank×100 where Abs is the absorbance.

O=C1O[C@H]([C@@H](O)CO)C(O)=C1O [Ascorbic acid, ascorbic acid]
Reducing Power IC0.5 [1]: 0.355 ± 0.393 ^a µg/mL
DPPH IC50 [2]: 44.308 ± 9.813 ^b µg/mL

COc1ccc(-c2coc3cc(O[C@@H]4O[C@H](CO)[C@@H](O)[C@H](O)[C@H]4O)ccc3c2=O)cc1 [Compound 8, Formononetin-7-O-glucoside (Ononin)]
DPPH radical IC50 ([3]; ref 62 (Zgórka et al. 2022)): 30.18 ± 0.37 µg/mL
ABTS radical IC50 ([4]; ref 62 (Zgórka et al. 2022)): 30.30 ± 0.18 µg/mL

C[C@@H]1O[C@@H](Oc2c(-c3ccc(O)c(O)c3)oc3cc(O)cc(O)c3c2=O)[C@H](O)[C@H](O)[C@H]1O [Compound 10, Quercitrin]
DPPH radical scavenging IC50 ([3]; isolated from ethyl acetate stem of Lippia graveolens, ref 70 (González Güereca et al. 2007)): 11.24 ± 1.10 µg/mL

CCCCC[C@H](O)CC(=O)CCc1ccc(O)c(OC)c1 [Compound 11, 6-Gingerol]
DPPH radical scavenging EC50 ([3]; isolated from rhizome of Zingiber officinale, ref 67 (Wang et al. 2003)): 23.07 µg/mL

Oc1cc(O)c2c(c1)O[C@H](c1cc(O)c(O)c(O)c1)[C@H](O)C2 [Compound 14, (−)-Epigallocatechin]
DPPH radical scavenging IC50 ([3]; from Japanese knotweed rhizome bark extract, ref 64 (Jug et al. 2021)): 1.5 µg/mL^−1

COC(=O)C1=COC(C)C2CN3CCC4(C(=O)Nc5c4ccc(OC)c5OC)C3CC12 (stereo not drawn) [Compound 15, Isomajdine]
DMPD scavenging EC50 [5]: 32.09 µg/mL
Ferrous ion (Fe^2+) chelating activity EC50 [6]: 10.05 µg/mL
ABTS scavenging EC50 ([4]; ref 65 (Gülçin et al. 2012)): 34.11 µg/mL

COc1cccc2c1C(=O)c1c(O)c3c(c(O)c1C2=O)C[C@@](O)(C(=O)CO)C[C@@H]3O[C@H]1C[C@H](N)[C@H](O)[C@H](C)O1 [Doxorubicin]
IC50 [7]: 4.97 ± 0.83 µg/mL (≈ 9.14 µM)

O=C(O)c1cc(O)c(O)c(O)c1 [Gallic acid, gallic acid]
Reducing Power IC0.5 [1]: 8.210 ± 11.257 ^a µg/mL
DPPH IC50 [2]: 37.340 ± 17.529 ^ab µg/mL

O=c1c(O)c(-c2ccc(O)c(O)c2)oc2cc(O)cc(O)c12 [Quercetin, quercetin]
Reducing Power IC0.5 [1]: 3.760 ± 2.979 ^a µg/mL
DPPH IC50 [2]: 37.361 ± 21.356 ^b µg/mL
